According to patent US6841548B2, “Pharmaceutical preparations containing estra-1,3,5(10)-triene derivatives” (Schering AG, priority 1994, dated 2005):

Columns and labels:
ovariectomated rats [1] = assay: Oral estrogenic effects: uterus weights in ovariectomated rats; format: in vivo, rat
From the text: (§1) The laboratory animals, adult female rats (breeder: HSD/WIN:WU) were ovariectomated on day 14. Treatment started two weeks later by a single oral application per day of the respective test substance. The dosages given for esters refer to the steroid portion of the substances. The tests were made in three groups (A, B, C) at various points in time. This is why there is a deviation in control group values. The tests of series A, B, and C can therefore be compared among each other if the values for the respective control groups are taken into account.
(§2) The procedure of allocating animals to groups was randomized. The experiment was carried out as a block test. The animals were weighed at the beginning and at the end of the experiment.
(§3) The start of treatment was defined as day 1 (=d1), treatment was finished on day 7 (=d7); the animals were killed on day 8, various organs (uteri, adrenal glands, liver) were removed, weighed and deep-frozen (−196° C.) for further examination.

ovariectomated rats [2] = assay: Oral estrogenic effects: weights of adrenal glands in ovariectomated rats; format: in vivo, rat
From the text: as §1, §2, §3

ovariectomated rats [3] = assay: Oral estrogen treatment: serum IGF1 (somatomedin C), RIA; format: in vivo, rat; design: unit not given here; conditions: Experiment A
From the text: as §1, §2, §3
(§4) Blood was taken from the retrobulbar plexus under ether anaesthesia prior to treatment (d0), and on (d4) and (d8). IGF1, angiotensin I, cholesterol and HDL cholesterol were determined in the serum obtained.
IGF1: RIA by bioMérieux Co.;

ovariectomated rats [4] = assay: Hepatic parameters: serum angiotensin I, modified RIA for renin activity; format: in vivo, rat; design: Angiotensin I: unit not given here; conditions: for Angiotensin I: Experiment A; for Influence on the angiotensin I level, summary in words: dose-action relationships on days 4 and 8
From the text: as §1, §2, §3, §4
angiotensin: modified RIA for renin activity by Sorin Co.

ovariectomated rats [5] = assay: Hepatic parameters: HDL cholesterol levels in serum, enzymatic test; format: in vivo, rat; conditions: Experiment A
From the text: as §1, §2, §3, §4
(§5) cholesterol/HDL: enzymatic tests, photometric determination, reagents by Dr Bruno Lange GmbH.

ovariectomated rats [6] = assay: Hepatic parameters: total cholesterol levels in serum, enzymatic test; format: in vivo, rat; conditions: for Total cholesterol levels (mean value ± standard deviation): Experiment A
Protocol: The laboratory animals, adult female rats (breeder: HSD/WIN:WU) were ovariectomated on day 14. Treatment started two weeks later by a single oral application per day of the respective test substance. The dosages given for esters refer to the steroid portion of the substances. The tests were made in three groups (A, B, C) at various points in time.
as §2, §3, §4, §5

[7] = Experiment B, 10 μg/animal/day p.o. d1-d7
[8] = Experiment C, 10 μg/animal/day p.o. d1-d7
[9] = Experiment A, 0.1 μg/animal/day p.o. d1-d7
[10] = Experiment A, 1 μg/animal/day p.o. d1-d7
[11] = Experiment A, 10 μg/animal/day p.o. d1-d7
[12] = Experiment A, 100 μg/animal/day p.o. d1-d7
[13] = 100 μg/animal/day p.o. d1-d7, d 0 (prior to treatment)
[14] = 100 μg/animal/day p.o. d1-d7, d 4
[15] = 100 μg/animal/day p.o. d1-d7, d 8
[16] = day 4, 0.1 μg/animal/day p.o. d1-d7
[17] = day 4, 1 μg/animal/day p.o. d1-d7
[18] = day 4, 10 μg/animal/day p.o. d1-d7
[19] = day 4, 100 μg/animal/day p.o. d1-d7
[20] = day 8, 0.1 μg/animal/day p.o. d1-d7
[21] = day 8, 1 μg/animal/day p.o. d1-d7
[22] = day 8, 10 μg/animal/day p.o. d1-d7
[23] = day 8, 100 μg/animal/day p.o. d1-d7

## C[C@]12CC[C@@H]3c4ccc(O)cc4CC[C@H]3[C@@H]1CCC2=O [Example E1, estrone]
Ovariectomated rats [1]; [7]
  Uterus weights (mean value): 170.63 mg
Ovariectomated rats [2]; [7]
  Weights of adrenal glands (mean value): 49.8 mg

## CCN(CC)S(=O)(=O)Oc1ccc2c(c1)CC[C@@H]1[C@@H]2CC[C@]2(C)[C@@H](O)[C@H](O)C[C@@H]12 [J 984, 16α,17β-Dihydroxy-estra-1,3,5(10)-trien-3-yl N,N-diethyl-sulfamate]
Ovariectomated rats [1]; [8]
  Uterus weights (mean value): 245.63 mg
other
  melting point: 121 to 124 °C
Ovariectomated rats [2]; [8]
  Weights of adrenal glands (mean value): 59.3 mg

## C#C[C@]1(O)CC[C@H]2[C@@H]3CCc4cc(OS(=O)(=O)N(CC)CC)ccc4[C@H]3CC[C@@]21C [J 271, 17β-Hydroxy-19-nor-17α-pregna-1,3,5(10)-triene-20-in-3-yl N,N-diethyl-sulfamate]
Ovariectomated rats [1]; [9]
  Uterus weights (mean value): 144.2 mg
Ovariectomated rats [1]; [10]
  Uterus weights (mean value): 289.9 mg
Ovariectomated rats [1]; [11]
  Uterus weights (mean value): 605.1 mg
Ovariectomated rats [1]; [12]
  Uterus weights (mean value): 563.6 mg
Ovariectomated rats [1]; [7]
  Uterus weights (mean value): 540.8 mg
Ovariectomated rats [1]; oral
  Oral dose at which the effect on uterus growth has reached a plateau: 0.01 mg/animal/day
Ovariectomated rats [1]; oral, versus EE and estradiol
  Effects on uterus growth, comparison in words: clear superiority to EE and great superiority to estradiol
Ovariectomated rats [3]; [13]
  IGF1 (= somatomedin C): 826.4 ± 96.7
Ovariectomated rats [3]; [14]
  IGF1 (= somatomedin C): 593.7 ± 57.0
Ovariectomated rats [3]; [15]
  IGF1 (= somatomedin C): 351.5 ± 32.6
Ovariectomated rats [2]; [9]
  Weights of adrenal glands (mean value): 57.1 mg
Ovariectomated rats [2]; [10]
  Weights of adrenal glands (mean value): 57.4 mg
Ovariectomated rats [2]; [11]
  Weights of adrenal glands (mean value): 63.1 mg
Ovariectomated rats [2]; [12]
  Weights of adrenal glands (mean value): 66.5 mg
Ovariectomated rats [2]; [7]
  Weights of adrenal glands (mean value): 57.9 mg
Ovariectomated rats [4]; [16]
  Angiotensin I: 380.8 ± 35.8
Ovariectomated rats [4]; [17]
  Angiotensin I: 383.8 ± 47.1
Ovariectomated rats [4]; [18]
  Angiotensin I: 435.2 ± 53.8
Ovariectomated rats [4]; [19]
  Angiotensin I: 734.0 ± 75.7
Ovariectomated rats [4]; [20]
  Angiotensin I: 462.2 ± 71.3
Ovariectomated rats [4]; [21]
  Angiotensin I: 425.9 ± 43.9
Ovariectomated rats [4]; [22]
  Angiotensin I: 373.4 ± 42.3
Ovariectomated rats [4]; [23]
  Angiotensin I: 668.2 ± 68.6
Ovariectomated rats [4]; dose of 10 μg/day
  Effect on angiotensin I (AI) values, in words: no clear effect on AI
Ovariectomated rats [4]; dose of 100 μg/day
  Effect on angiotensin I (AI) values, in words: increases in AI values but these are significantly lower than those observed under the influence of EE or J 824
Ovariectomated rats [4]
  Influence on the angiotensin I level, summary in words: clearly below those for EE
Ovariectomated rats [5]; [16]
  HDL cholesterol levels (mean value ± standard deviation): 57.6 ± 6.5 mg/dL
Ovariectomated rats [5]; [17]
  HDL cholesterol levels (mean value ± standard deviation): 57.1 ± 7.1 mg/dL
Ovariectomated rats [5]; [18]
  HDL cholesterol levels (mean value ± standard deviation): 54.6 ± 5.7 mg/dL
Ovariectomated rats [5]; [19]
  HDL cholesterol levels (mean value ± standard deviation): 13.2 ± 14.0 mg/dL
Ovariectomated rats [5]; [20]
  HDL cholesterol levels (mean value ± standard deviation): 57.3 ± 6.0 mg/dL
Ovariectomated rats [5]; [21]
  HDL cholesterol levels (mean value ± standard deviation): 59.6 ± 6.8 mg/dL
Ovariectomated rats [5]; [22]
  HDL cholesterol levels (mean value ± standard deviation): 49.9 ± 6.0 mg/dL
Ovariectomated rats [5]; [23]
  HDL cholesterol levels (mean value ± standard deviation): 10.7 ± 8.2 mg/dL
Ovariectomated rats [6]; [16]
  Total cholesterol levels (mean value ± standard deviation): 96.0 ± 15.0 mg/dL
Ovariectomated rats [6]; [17]
  Total cholesterol levels (mean value ± standard deviation): 108.5 ± 10.3 mg/dL
Ovariectomated rats [6]; [18]
  Total cholesterol levels (mean value ± standard deviation): 92.4 ± 12.1 mg/dL
Ovariectomated rats [6]; [19]
  Total cholesterol levels (mean value ± standard deviation): 24.5 ± 14.4 mg/dL
Ovariectomated rats [6]; [20]
  Total cholesterol levels (mean value ± standard deviation): 91.1 ± 18.3 mg/dL
Ovariectomated rats [6]; [21]
  Total cholesterol levels (mean value ± standard deviation): 101.4 ± 6.3 mg/dL
Ovariectomated rats [6]; [22]
  Total cholesterol levels (mean value ± standard deviation): 81.9 ± 12.6 mg/dL
Ovariectomated rats [6]; [23]
  Total cholesterol levels (mean value ± standard deviation): 18.6 ± 8.3 mg/dL
Ovariectomated rats [6]; highest dose, versus EE
  Drop in total and HDL cholesterol levels in the blood, in words: still recognizably lower than that caused by EE
Ovariectomated rats [6]; up to 10 μg
  Effect on cholesterol levels in the blood (total and HDL), in words: did not reduce cholesterol levels in the blood

## C[C@]12CC[C@@H]3c4ccc(O)cc4CC[C@H]3[C@@H]1CC[C@@H]2O [Example E2, estradiol]
Ovariectomated rats [1]; [9]
  Uterus weights (mean value): 123.3 mg
Ovariectomated rats [1]; [10]
  Uterus weights (mean value): 128.9 mg
Ovariectomated rats [1]; [11]
  Uterus weights (mean value): 130.7 mg
Ovariectomated rats [1]; [12]
  Uterus weights (mean value): 285.4 mg
Ovariectomated rats [1]; [7]
  Uterus weights (mean value): 182.3 mg
Ovariectomated rats [3]; [13]
  IGF1 (= somatomedin C): 717.4 ± 80.8
Ovariectomated rats [3]; [14]
  IGF1 (= somatomedin C): 623.6 ± 100.0
Ovariectomated rats [3]; [15]
  IGF1 (= somatomedin C): 601.1 ± 108.8
Ovariectomated rats [2]; [9]
  Weights of adrenal glands (mean value): 49.3 mg
Ovariectomated rats [2]; [10]
  Weights of adrenal glands (mean value): 57.9 mg
Ovariectomated rats [2]; [11]
  Weights of adrenal glands (mean value): 61.6 mg
Ovariectomated rats [2]; [12]
  Weights of adrenal glands (mean value): 54.4 mg
Ovariectomated rats [2]; [7]
  Weights of adrenal glands (mean value): 54.4 mg
Ovariectomated rats [4]; [16]
  Angiotensin I: 376.2 ± 48.3
Ovariectomated rats [4]; [17]
  Angiotensin I: 359.8 ± 53.4
Ovariectomated rats [4]; [18]
  Angiotensin I: 412.8 ± 66.6
Ovariectomated rats [4]; [19]
  Angiotensin I: 497.7 ± 69.0
Ovariectomated rats [4]; [20]
  Angiotensin I: 449.5 ± 55.1
Ovariectomated rats [4]; [21]
  Angiotensin I: 392.9 ± 32.0
Ovariectomated rats [4]; [22]
  Angiotensin I: 335.5 ± 24.9
Ovariectomated rats [4]; [23]
  Angiotensin I: 464.3 ± 16.7
Ovariectomated rats [4]; at any dose throughout the experiment
  Effect on angiotensin I (AI) values, in words: no recognizable effect
Ovariectomated rats [4]
  Influence on the angiotensin I level, summary in words: at best has marginal stimulating influence
Ovariectomated rats [5]; [16]
  HDL cholesterol levels (mean value ± standard deviation): 49.1 ± 7.8 mg/dL
Ovariectomated rats [5]; [17]
  HDL cholesterol levels (mean value ± standard deviation): 50.9 ± 6.1 mg/dL
Ovariectomated rats [5]; [18]
  HDL cholesterol levels (mean value ± standard deviation): 55.0 ± 6.9 mg/dL
Ovariectomated rats [5]; [19]
  HDL cholesterol levels (mean value ± standard deviation): 43.7 ± 7.6 mg/dL
Ovariectomated rats [5]; [20]
  HDL cholesterol levels (mean value ± standard deviation): 51.0 ± 4.6 mg/dL
Ovariectomated rats [5]; [21]
  HDL cholesterol levels (mean value ± standard deviation): 52.3 ± 4.1 mg/dL
Ovariectomated rats [5]; [22]
  HDL cholesterol levels (mean value ± standard deviation): 51.5 ± 3.9 mg/dL
Ovariectomated rats [5]; [23]
  HDL cholesterol levels (mean value ± standard deviation): 46.0 ± 9.2 mg/dL
Ovariectomated rats [6]; all doses
  Effect on cholesterol levels in the blood (total and HDL), in words: did not reduce cholesterol levels in the blood

## CCN(CC)S(=O)(=O)Oc1ccc2c(c1)CC[C@@H]1[C@@H]2CC[C@]2(C)[C@@H](O)CC[C@@H]12 [J 981, 17β-Hydroxy-estra-1,3,5(10)-trien-3-yl N,N-diethyl-sulfamate]
Ovariectomated rats [1]; [7]
  Uterus weights (mean value): 225.34 mg
other
  melting point: 175 to 176 °C
Ovariectomated rats [2]; [7]
  Weights of adrenal glands (mean value): 50.5 mg

## CN(C)S(=O)(=O)Oc1ccc2c(c1)CC[C@@H]1[C@@H]2CC[C@]2(C)[C@@H](O)[C@H](O)C[C@@H]12 [J 989, 16α,17β-Dihydroxy-estra-1,3,5(10)-trien-3-yl N,N-dimethyl-sulfamate]
Ovariectomated rats [1]; [8]
  Uterus weights (mean value): 182.79 mg
other
  melting point: 180 to 181 °C
Ovariectomated rats [2]; [8]
  Weights of adrenal glands (mean value): 52.8 mg
